Laboratory results reported in PMC5190008, “BO-1055, a novel DNA cross-linking agent with remarkable low myelotoxicity shows potent activity in sarcoma models” (Oncotarget, 2016).

Experiments:
[1] = test system: benign cells (mesenchymal stromal cells, fetal lung fibroblasts and myofibroblasts, hematopoietic progenitor cells, endothelial cells, MS-5); assay: Alamar blue cytotoxicity in benign cells; type: cell-based, human, murine; settings: up to 10 μM, most of the tested cells
Protocol: We also examined the effect of BO-1055 in inhibiting the cell growth of different types of benign cells including human mesenchymal stromal cells, fetal lung fibroblasts and myofibroblasts, hematopoietic progenitor cells, bone marrow derived endothelial cells and human umbilical vein endothelial cells and murine mesenchymal stromal cells, MS-5 (murine).
AlamarBlue® assay (Invitrogen, Carlsbad, CA, USA) was performed to evaluate anti-proliferative activity of the drugs in cell lines and primary cells. Cells were plated in 96-well plates ([…] in 200 μL of medium). After 12 h, one of the previously mentioned drugs was added to each well at the specified concentration and incubated for 72 h. At the end of the incubation period, 20 μL of stock solution (0.312 mg/mL) of the Alamar Blue was added to each well. The absorbance was measured using the Synergy H1 hybrid multi-mode microplate reader (BioTek, USA). The drug effect was quantified as the percentage of control absorbance at 540 nm and 585 nm. Optical density was determined for 3 replicates per treatment condition and cell proliferation in drug-treated cells was normalized to their respective controls. All experiments were performed in triplicate.

A673 xenografts = A673 xenografts in NSG mice; type: in vivo; settings: 10mg/kg
Protocol: All mouse experiments were performed at the animal core facility at MSKCC under an approved protocol following the IACUC guidelines. Five to seven-week-old NOD/SCID IL2R gamma null (NSG) mice (bred at the Mouse Genetics Core Facility, MSKCC) were used for in vivo experiments. All mouse experiments were done following the IACUC guidelines at the animal facility at MSKCC. Tumors were induced using 10^6 A673 cells or A204 cells in 0.2ml 1:1 cellular medium, Matrigel matrix (BD Bioscience, Bedford, MA) and injected subcutaneously (s.q) into the right flank. The tumors were measured every 3 d with a caliper, and the diameters were recorded. Tumor volume was calculated by the formula a^2 b/2 where ‘a’ is the smallest and ‘b’ is the largest diameter. When the tumors reached 100mm^3, we randomized mice into control and drug treatment groups. Treatment groups received BO-1055 by tail vein injection at 10mg/kg, 20mg/kg and 30mg/kg q2d x 5 doses for mice bearing A673 xenografts. BO-1055 was given at 30mg/kg q2d x 5 doses for mice bearing A204 xenografts. De-identified patient tumor tissues were obtained in accordance with and approval from the MSKCC Institutional Review Board (IRB). Appropriate written consent and assent were obtained from the patients prior to sample collection. Patient derived xenografts were developed in NSG mice (second passage) from a patient with relapsed Ewing sarcoma, who was treated with two alkylating agents- cyclophosphamide and ifosfamide as part of a multi-agent chemotherapy prior to relapse. When the tumors reached 100mm^2, we randomized mice into control and drug treatment groups. Mice in the control groups received PBS injections while mice in the drug treatment group received the maximum tolerated dose (MTD) of cyclophosphamide 70mg/kg i.p. q2d x 3 (shown by shorter arrows) (Figure 5D). Tumor growth was not inhibited in the cyclophosphamide treated mice. When the tumors reached a size greater than 500mm^3, we started treatment with BO-1055 at a dose of 30mg/kg i.v. q2d x 4 doses (shown by longer arrows in Figure 4F). […]

A204 cells = assay: Cell cycle analysis (propidium iodide); type: cell-based, human; settings: A204, prominent at 12-24h of exposure
Protocol: (§1) Cell viability and apoptosis were determined using 7-AAD (BD Pharmingen, San Diego, CA) and Annexin V-APC (BD Pharmingen, San Diego, CA) staining according to the instructions provided by the manufacturer and as previously published. Cell cycle fractions were determined by propidium iodide nuclear staining. Briefly, cells were harvested, washed in PBS, fixed with 70% ethanol, and incubated with propidium iodide/RNase buffer (BD Biosciences, San Diego, CA) for 15 minutes at room temperature. Data was collected on BD LSR Fortessa fluorescence-activated cell analyzer using BD FACS Diva software and analyzed using FlowJo version 9.6 software (Tree Star, Inc. Ashland, OR). Cell cycle analysis was done by applying the Dean/Jett/Fox cell cycle model using FlowJo software.

A673 cells = assay: Cell cycle analysis (propidium iodide); type: cell-based, human; settings: A673, prominent at 12-24h of exposure
Protocol: as §1

A204 xenografts = A204 xenografts in nude mice; type: in vivo
Protocol: All mouse experiments were performed at the animal core facility at MSKCC under an approved protocol following the IACUC guidelines. Five to seven-week-old NOD/SCID IL2R gamma null (NSG) mice (bred at the Mouse Genetics Core Facility, MSKCC) were used for in vivo experiments. All mouse experiments were done following the IACUC guidelines at the animal facility at MSKCC. Tumors were induced using 10^6 A673 cells or A204 cells in 0.2ml 1:1 cellular medium, Matrigel matrix (BD Bioscience, Bedford, MA) and injected subcutaneously (s.q) into the right flank. The tumors were measured every 3 d with a caliper, and the diameters were recorded. Tumor volume was calculated by the formula a^2 b/2 where ‘a’ is the smallest and ‘b’ is the largest diameter. When the tumors reached 100mm^3, we randomized mice into control and drug treatment groups. Treatment groups received BO-1055 by tail vein injection at 10mg/kg, 20mg/kg and 30mg/kg q2d x 5 doses for mice bearing A673 xenografts. BO-1055 was given at 30mg/kg q2d x 5 doses for mice bearing A204 xenografts. De-identified patient tumor tissues were obtained in accordance with and approval from the MSKCC Institutional Review Board (IRB). Appropriate written consent and assent were obtained from the patients prior to sample collection. […]

[2] = test system: A673, H526 and U20S cells; assay: Immunoblot analyses of DNA damage repair proteins; type: cell-based, human; settings: 2μM, 6h and 24h
Protocol: Protein concentrations were determined using the BCA kit (Pierce Biotechnology, Rockford, IL) according to the manufacturer's instructions. Protein lysates (20-100 μg) were electrophoretically resolved by SDS/PAGE, transferred to nitrocellulose membrane, and probed with the indicated primary antibodies: Phospho-ATM (Ser1981) (D6H9) from rabbit (1:500, 5883, Cell Signaling, Danvers, MA), Phospho-BRCA1 (Ser1524) from rabbit (1:500, 9009, Cell Signaling), DNA-PK from rabbit (1:500, 4602, Cell Signaling), Mre11 (31H4) from rabbit (1:500, 4847, Cell Signaling) and Rad50 from rabbit (1:500, 3427, Cell Signaling). Membranes were then incubated with a 1:5,000 dilution of a peroxidase conjugated corresponding secondary antibody. Equal loading of the protein samples was confirmed by parallel western blots for β-actin (1:5,000, ab822750; Abcam). Detection was performed using the ECL-Enhanced Chemiluminescence Detection System (GE Healthcare Biosciences, Pittsburgh, PA) according to the manufacturer's instructions. Blots were visualized by autoradiography.

[3] = 20mg/kg and 30mg/kg/dose q2d x 5

Which “cytotoxicity against benign cells” value [1] does the source give for `CN(C)CCNC(=O)c1cccc(NC(=O)Nc2ccc(N(CCCl)CCCl)cc2)c1` [BO-1055] here?
The value was “minimal to no cytotoxicity”.

What about the body weight (A673 xenografts; [3]) of the same compound?
The body weight was “no significant decrease in body weight”.

What about the survival (A673 xenografts; [3]) of the same compound?
The survival was “prolonged survival”.

And the tumor growth (A673 xenografts; 20mg/kg and 30mg/kg/dose q2d x 5, tail vein)?
The tumor growth was “inhibition of tumor growth”.

And the cell cycle effect (A204 cells)?
Its cell cycle effect is “concentration-dependent accumulation of cells in the G2/M phase”.

What about the cell cycle effect (A673 cells) of the same compound?
The cell cycle effect was “concentration-dependent accumulation of cells in the G2/M phase”.

What about the body weight (A204 xenografts; 30mg/kg q2d x 5) of the same compound?
The body weight was “no significant decrease in body weight”.

What about the tumor response (A204 xenografts; 30mg/kg q2d x 5, tail vein) of the same compound?
Its tumor response is “Complete regression of tumors”.

And the pATM ([2]; A673, H526 and U20S)?
The pATM was “activation of pATM”.

And the pBRCA1 ([2]; U20S)?
The pBRCA1 was “upregulation of pBRCA1”.

What about the Rad50 ([2]; sensitive lines (A673, H526)) of the same compound?
Its Rad50 is “Upregulation of Rad50”.
